According to article PMC7031696 (Cell chemical biology, 2019):
pIC50: −log10 of the molar value. Entries after “also recorded” stand apart in the source; their conditions may differ. Where two headings read alike, the source gives them in different places. Blank lines part the entries; values can stand above or below the compound they belong to.

What was measured:
[1] = test system: asynchronous 3D7-A10 parasite cultures; assay: Standard 72-h exposure asexual blood stage susceptibility assay (IC50^72h); format: cell-based, Plasmodium falciparum; settings: Plasmodium falciparum, 3D7, 72 h, read-out: Overall (72hr assay) Mean IC50 (IC50^72h)
[2] = test system: Plasmodium falciparum 3D7-A10 parasites; assay: Stage specificity assay (8-h exposure of synchronized stages, IC50^8h); format: cell-based; settings: for pIC50: Plasmodium falciparum
physchem = settings: pH 7.4, aqueous buffer, kinetic from dmso stock
[3] = test system: 3D7-MR4 trophozoite parasite-infected RBCs; assay: Metabolomic profiling (hydrophilic metabolite changes, UHPLC-MS); format: cell-based, Plasmodium falciparum
[4] = test system: 3D7-MR4 trophozoite parasite-infected RBCs; settings: 10 × IC50^72h; ref Allman et al., 2016; cited from earlier work
[5] = 3D7, read-out: Early rings Mean IC50 (IC50^8h), 8-h exposure 0–8 hr, 3D7-A10, survival at 60 h
[6] = 3D7, read-out: Early trophozoites Mean IC50 (IC50^8h), 8-h exposure 16–24 hr, 3D7-A10, survival at 60 h
[7] = 3D7, read-out: Late rings Mean IC50 (IC50^8h), 8-h exposure 8–16 hr, 3D7-A10, survival at 60 h
[8] = 3D7, read-out: Late trophozoites Mean IC50 (IC50^8h), 8-h exposure 24–32 hr, 3D7-A10, survival at 60 h
[9] = 3D7, read-out: Schizonts Mean IC50 (IC50^8h), 8-h exposure 32–40 hr, 3D7-A10, survival at 60 h

pIC50 [1]: 9.00 | solubility at 1.5 h (physchem): ≥ 500 µM
Structure (SMILES): C[C@H]1[C@@H](O)O[C@@H]2O[C@@]3(C)CC[C@H]4[C@H](C)CC[C@@H]1[C@@]24OO3 [Dihydroartemisinin, reference compound]
overall activity profile (stages on which active) ([2]; 8-h exposures): activity on all stages | pIC50 [2, 5]: 8.82 | pIC50 [2, 6]: 8.62 | pIC50 [2, 7]: 8.62 | pIC50 [2, 8]: 8.41 | pIC50 [2, 9]: 7.94 | Stage of peak activity (Figure 6) ([2]; period when the parasite was most susceptible (lowest IC50^8h)): ring and trophozoite stages; also recorded: rings and trophozoites

pIC50 [1]: 6.51 | Ratio lowest IC50 8hr/IC50 72hr ([2]; 3D7-A10): 4.4 | pIC50 ([2]; 3D7, 8 h, read-out: IC50^8h values at all tested stages, 8-h exposures, all asexual blood stages): < 6.00
Structure (SMILES): COCCNCC(O)Cn1c2ccc(Cl)cc2c2cc(Cl)ccc21 (stereo not shown) [MMV019017]
Log2(fold changes) 3-phosphoglycerate ([3]; metabolite 3-phosphoglycerate, log2 fold change): -0.1375 | Log2(fold changes) 4-Pyridoxic acid ([3]; metabolite 4-Pyridoxic acid, log2 fold change): 0.0658 | Log2(fold changes) 4-aminobutyrate ([3]; metabolite 4-aminobutyrate, log2 fold change): 1.1150 | Log2(fold changes) 4-phosphopantetheine ([3]; metabolite 4-phosphopantetheine, log2 fold change): 0.0000 | Log2(fold changes) 4-phosphopantothenate ([3]; metabolite 4-phosphopantothenate, log2 fold change): -1.0497 | Log2(fold changes) 5-aminopentanoic acid ([3]; metabolite 5-aminopentanoic acid, log2 fold change): 0.0000 | Log2(fold changes) 5-methyl-THF ([3]; metabolite 5-methyl-THF, log2 fold change): 0.0000 | Log2(fold changes) 5-phosphoribosyl-1-pyrophosphate ([3]; metabolite 5-phosphoribosyl-1-pyrophosphate, log2 fold change): -1.1636 | Log2(fold changes) 6-phospho-D-gluconate ([3]; metabolite 6-phospho-D-gluconate, log2 fold change): -0.4356 | Log2(fold change) HVDD ([3]; metabolite HVDD): 0.0000 | Log2(fold change) Hydroxyisocaproic acid ([3]; metabolite Hydroxyisocaproic acid): 0.0000 | Log2(fold change) IDP ([3]; metabolite IDP): 0.0000 | Log2(fold change) IMP ([3]; metabolite IMP): 0.0176 | Log2(fold change) Inositol ([3]; metabolite Inositol): 0.0000 | Log2(fold change) Isopentyl-PP ([3]; metabolite Isopentyl-PP): 0.0000 | Log2(fold change) L-arginino-succinate ([3]; metabolite L-arginino-succinate): 0.0000 | Log2(fold change) LD ([3]; metabolite LD): -2.3846 | Log2(fold change) Myristoyl/tetradecanoyl-CoA ([3]; metabolite Myristoyl/tetradecanoyl-CoA): 0.0000 | Log2(fold change) N-Acetyl-L-alanine ([3]; metabolite N-Acetyl-L-alanine): -0.1766 | Log2(fold change) N-acetyl-L-ornithine ([3]; metabolite N-acetyl-L-ornithine): -1.7936 | Log2(fold change) N-acetyl-glucosamine-1/6-phosphate ([3]; metabolite N-acetyl-glucosamine-1/6-phosphate): -1.5222 | Log2(fold change) N-acetyl-glutamate ([3]; metabolite N-acetyl-glutamate): 0.3951 | Log2(fold change) N-acetyl-glutamine ([3]; metabolite N-acetyl-glutamine): 0.6689 | Log2(fold change) N-carbamoyl-L-aspartate ([3]; metabolite N-carbamoyl-L-aspartate): -1.9472 | Log2(fold change) NAD+ ([3]; metabolite NAD+): -0.1399 | Log2(fold change) NADH ([3]; metabolite NADH): 0.8540 | Log2(fold change) NADP+ ([3]; metabolite NADP+): 0.2168 | Log2(fold change) NADPH ([3]; metabolite NADPH): 0.4083 | Log2(fold change) O-acetyl-L-serine ([3]; metabolite O-acetyl-L-serine): 0.0000 | Log2(fold change) Octoluse 8/1P ([3]; metabolite Octoluse 8/1P): -0.2135 | Log2(fold change) Octoluse Bisphosphate ([3]; metabolite Octoluse Bisphosphate): -5.4193 | Log2(fold change) PD ([3]; metabolite PD): -1.1341 | Log2(fold change) PE ([3]; metabolite PE): 0.0923 | Log2(fold change) PEE ([3]; metabolite PEE): 0.2942 | Log2(fold change) PEEK ([3]; metabolite PEEK): -0.4238 | Log2(fold change) PVNF ([3]; metabolite PVNF): -4.6843 | Log2(fold change) Pyroglutamic acid ([3]; metabolite Pyroglutamic acid): 0.4950 | Log2(fold change) Pyrophosphate ([3]; metabolite Pyrophosphate): -2.5918 | Log2(fold change) Ribose-5-phosphate ([3]; metabolite Ribose-5-phosphate): 0.0000 | Log2(fold change) S-adenosyl-L-homocysteine ([3]; metabolite S-adenosyl-L-homocysteine): -0.4383 | Log2(fold change) S-adenosyl-L-methioninamine ([3]; metabolite S-adenosyl-L-methioninamine): 0.0000 | Log2(fold change) S-adenosyl-L-methionine ([3]; metabolite S-adenosyl-L-methionine): 0.0000 | Log2(fold change) S-methyl-5'-thioadenosine ([3]; metabolite S-methyl-5'-thioadenosine): 0.0000 | Log2(fold change) SD ([3]; metabolite SD): -1.6540 | Log2(fold change) SDL ([3]; metabolite SDL): 0.0000 | Log2(fold change) SID ([3]; metabolite SID): 0.0000 | Log2(fold change) Sedoheptulose bisphosphate ([3]; metabolite Sedoheptulose bisphosphate): -1.7256 | Log2(fold change) Thiamine pyrophosphate ([3]; metabolite Thiamine pyrophosphate): 0.0000 | Log2(fold changes) UDP-D-glucose ([3]; metabolite UDP-D-glucose, log2 fold change): 0.0449 | Log2(fold changes) UDP-D-glucuronate ([3]; metabolite UDP-D-glucuronate, log2 fold change): -0.4277 | Log2(fold changes) UDP-N-acetyl-glucosamine ([3]; metabolite UDP-N-acetyl-glucosamine, log2 fold change): -0.2402 | Log2(fold changes) UDP ([3]; metabolite UDP, log2 fold change): -1.4536 | Log2(fold changes) UMP ([3]; metabolite UMP, log2 fold change): -0.1145 | Log2(fold changes) UTP ([3]; metabolite UTP, log2 fold change): -1.8511 | Log2(fold change) hydroxyphenylpyruvate ([3]; metabolite hydroxyphenylpyruvate): 0.0000 | Log2(fold change) hydroxyproline/Aminolevulinate ([3]; metabolite hydroxyproline/Aminolevulinate): 0.0000 | Log2(fold change) hypoxanthine ([3]; metabolite hypoxanthine): 1.0399 | Log2(fold change) indole ([3]; metabolite indole): 0.2468 | Log2(fold change) inosine ([3]; metabolite inosine): 0.3793 | Log2(fold change) isoleucine ([3]; metabolite isoleucine): 0.0000 | Log2(fold change) lactate ([3]; metabolite lactate): -0.6725 | Log2(fold change) leucine ([3]; metabolite leucine): 0.0000 | Log2(fold change) lysine ([3]; metabolite lysine): 0.0000 | Log2(fold change) malate ([3]; metabolite malate): 0.0811 | Log2(fold change) maleic acid ([3]; metabolite maleic acid): 0.0000 | Log2(fold change) methionine ([3]; metabolite methionine): 0.0000 | Log2(fold change) myo-inositol ([3]; metabolite myo-inositol): -2.8253 | Log2(fold change) nicotinamide mononucleotide ([3]; metabolite nicotinamide mononucleotide): 0.0000 | Log2(fold change) nicotinate ([3]; metabolite nicotinate): 1.9078 | Log2(fold change) ornithine ([3]; metabolite ornithine): 0.0801 | Log2(fold change) orotate ([3]; metabolite orotate): 1.9702 | Log2(fold change) orotidine-5'-phosphate ([3]; metabolite orotidine-5'-phosphate): 0.0000 | Log2(fold change) oxaloacetate ([3]; metabolite oxaloacetate): 0.0000 | Log2(fold change) p-aminobenzoate ([3]; metabolite p-aminobenzoate): 0.0000 | Log2(fold change) p-hydroxybenzoate ([3]; metabolite p-hydroxybenzoate): 0.7031 | Log2(fold change) pantothenate ([3]; metabolite pantothenate): 0.0000 | Log2(fold change) phenylalanine ([3]; metabolite phenylalanine): 0.0000 | Log2(fold change) phenylpyruvate ([3]; metabolite phenylpyruvate): 1.2139 | Log2(fold change) phosphoenolpyruvate ([3]; metabolite phosphoenolpyruvate): 0.7560 | Log2(fold change) prephenate ([3]; metabolite prephenate): 0.0000 | Log2(fold change) proline ([3]; metabolite proline): 0.0000 | Log2(fold change) pyridoxine ([3]; metabolite pyridoxine): 0.0000 | Log2(fold change) pyruvate ([3]; metabolite pyruvate): -0.9980 | Log2(fold change) riboflavin ([3]; metabolite riboflavin): 0.0000 | Log2(fold change) ribose ([3]; metabolite ribose): 0.0000 | Log2(fold change) ribose-phosphate ([3]; metabolite ribose-phosphate): -0.9470 | Log2(fold change) ribulose-5-phosphate ([3]; metabolite ribulose-5-phosphate): 0.0000 | Log2(fold change) serine ([3]; metabolite serine): 0.0000 | Log2(fold change) sn-glycerol-3-phosphate ([3]; metabolite sn-glycerol-3-phosphate): 0.0194 | Log2(fold change) succinate/Methylmalonic acid ([3]; metabolite succinate/Methylmalonic acid): 0.4365 | Log2(fold change) succinyl-CoA/methylmalonyl-CoA ([3]; metabolite succinyl-CoA/methylmalonyl-CoA): 0.0000 | Log2(fold change) taurine ([3]; metabolite taurine): 0.0000 | Log2(fold change) thiamine ([3]; metabolite thiamine): 0.0000 | Log2(fold change) threonine/homoserine ([3]; metabolite threonine/homoserine): 0.0000 | Log2(fold change) thymidine ([3]; metabolite thymidine): -1.7681 | Log2(fold changes) thymine ([3]; metabolite thymine, log2 fold change): -1.7003 | Log2(fold changes) trehalose-6-Phosphate ([3]; metabolite trehalose-6-Phosphate, log2 fold change): 0.0000 | Log2(fold changes) tryptophan ([3]; metabolite tryptophan, log2 fold change): 0.0000 | Log2(fold changes) tyrosine ([3]; metabolite tyrosine, log2 fold change): 0.0000 | Log2(fold changes) uridine ([3]; metabolite uridine, log2 fold change): -0.5758 | levels of cAMP [4]: decreased | levels of the deoxyribonucleotides dAMP and dTMP [4]: increased | nucleoside di- and tri-phosphate levels (GDP, UDP, GTP, dATP, dGTP/ATP, dUTP) [4]: decreased | peptide levels (hemoglobin catabolism signature) [4]: decreased peptide levels | pIC50 [2, 5]: 5.07 | pIC50 [2, 6]: 5.87 | pIC50 [2, 7]: 5.06 | pIC50 [2, 8]: 5.77 | pIC50 [2, 9]: 5.51
